Source: article PMC7754465, “Multiparameter Kinetic Analysis for Covalent Fragment Optimization by Using Quantitative Irreversible Tethering (qIT)” (Chembiochem, 2020)
Entries after “also recorded” stand apart in the source; their conditions may differ.

Target: T1, Cdk2(ES) (Homo sapiens, UniProt P24941, C177A/F80C)
T1 construct: GST (N, cleaved yes); made in house; host or cells: E. coli Tuner(DE3)
Assay: intact-protein mass spectrometry of covalent modification
Format: binding
Conditions: 0.5 mM acrylamide; 2 h for acrylamide 1
Source text: To orthogonally validate the results from the qIT assay, we undertook a mass spectrometric study to obtain a direct measurement of both the extent and site of covalent fragment modification. […] To confirm C80 as the site of modification, the 1‐Cdk2(ES) complex was digested with trypsin and the resulting peptides analysed by MALDI mass spectrometry. […] Tandem mass spectrometric analysis of this ion enabled confirmatory sequencing of the peptide and unambiguous assignment of C80 as the site of modification (Figure 4b).
See High-Throughput Kinetic Analysis for Target-Directed Covalent Ligand Discovery for full library details.4 In brief, Acryla-mide fragments were synthesized from amine precursors; 14,000 primary and secondary amines were selected from Enamine’s commercial collection with molecular weight < 250 Da, from which 235 unique Bemis-Murcko frameworks were generated.[5] […] The physiochemical properties of the final library were calculated using DataWarrior[6] and found to broadly comply with the ‘Rule of 3’ guidelines. […]
Reaction-plate setup: Each well of a 96-well PCR plate was charged with 60–100 µL of target thiol (GSH or protein, 10 µM) and 4% w/v TCEP-agarose beads in 100 mM phosphate buffer (pH 7.5 or 8) and cooled to 4 °C. […] For each time point, the fluorescence of each reaction was normalized relative Cdk2(ES)/GSH only control = maximum signal, DMSO only = minimum signal. […]

| SMILES | covalent modification of Cdk2(ES) |
| --- | --- |
| C=CC(=O)Nc1ccc(-c2ncccn2)cc1 [S1] | complete mono‐modification |
| C=CC(=O)N1CCCc2cc(C(=O)OC)ccc21 [compound 1] | fully modifies; also recorded: complete mono‐modification |
